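Here, GI50 denotes the concentration required for 50% inhibition of growth. TGI is the concentration that stops growth completely.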
Legend:
Test in all cases: NCI-60 cell line screen, 384-well format
NCI-H23 lung = system: NCI-H23 lung
OVCAR-8 ovarian = system: OVCAR-8 ovarian
RXF 393 renal = system: RXF 393 renal
NCI-H226 lung = system: NCI-H226 lung
MDA-MB-435 melanoma = system: MDA-MB-435 melanoma
HS 578T breast = system: HS 578T breast
HCC-2998 colon = system: HCC-2998 colon
T-47D breast = system: T-47D breast
SNB-19 CNS = system: SNB-19 CNS
UACC-257 melanoma = system: UACC-257 melanoma
SK-OV-3 ovarian = system: SK-OV-3 ovarian
SK-MEL-2 melanoma = system: SK-MEL-2 melanoma
PC-3 prostate = system: PC-3 prostate
OVCAR-4 ovarian = system: OVCAR-4 ovarian
A549 NSCLC = system: A549 NSCLC
SK-MEL-28 melanoma = system: SK-MEL-28 melanoma
COLO 205 colon = system: COLO 205 colon
NCI-H522 lung = system: NCI-H522 lung
SW-620 colon = system: SW-620 colon
OVCAR-3 ovarian = system: OVCAR-3 ovarian
SN12C renal = system: SN12C renal
HCT-15 colon = system: HCT-15 colon
NCI/ADR-RES ovarian = system: NCI/ADR-RES ovarian
IGROV1 ovarian = system: IGROV1 ovarian
M14 melanoma = system: M14 melanoma
786-0 renal = system: 786-0 renal
A498 renal = system: A498 renal
HOP-92 NSCLC = system: HOP-92 NSCLC
SK-MEL-5 melanoma = system: SK-MEL-5 melanoma
NCI-H460 NSCLC = system: NCI-H460 NSCLC
OVCAR-5 ovarian = system: OVCAR-5 ovarian
HL-60(TB) leukemia = system: HL-60(TB) leukemia
MDA-MB-468 breast = system: MDA-MB-468 breast
UO-31 renal = system: UO-31 renal
MALME-3M melanoma = system: MALME-3M melanoma
CCRF-CEM leukemia = system: CCRF-CEM leukemia
MDA-MB-231 breast = system: MDA-MB-231 breast
BT-549 breast = system: BT-549 breast
KM12 colon = system: KM12 colon
EKVX NSCLC = system: EKVX NSCLC
RPMI-8226 leukemia = system: RPMI-8226 leukemia
SNB-75 CNS = system: SNB-75 CNS
K-562 leukemia = system: K-562 leukemia
HOP-62 NSCLC = system: HOP-62 NSCLC
TK-10 renal = system: TK-10 renal
MCF7 breast = system: MCF7 breast
SF-295 CNS = system: SF-295 CNS
DU-145 prostate = system: DU-145 prostate
HT29 colon = system: HT29 colon
NCI-H322M lung = system: NCI-H322M lung
SF-539 CNS = system: SF-539 CNS
UACC-62 melanoma = system: UACC-62 melanoma
SF-268 CNS = system: SF-268 CNS
LOX IMVI melanoma = system: LOX IMVI melanoma
ACHN renal = system: ACHN renal
U251 glioblastoma = system: U251 glioblastoma
MOLT-4 leukemia = system: MOLT-4 leukemia
SR leukemia = system: SR leukemia
CAKI-1 renal = system: CAKI-1 renal

Structure (SMILES): CC1(C)CC[C@H](Nc2ncc(C(F)(F)F)c(-c3c[nH]c4c(P(C)(C)=O)c(C#N)ccc34)n2)CN1
- GI50 (NCI-H23 lung): < 10 nM
- TGI (NCI-H23 lung): 1470 nM
- GI50 (OVCAR-8 ovarian): 74.3 nM
- TGI (OVCAR-8 ovarian): 6280 nM
- GI50 (RXF 393 renal): 1510 nM
- TGI (RXF 393 renal): 2990 nM
- GI50 (NCI-H226 lung): 577 nM
- TGI (NCI-H226 lung): 12600 nM
- GI50 (MDA-MB-435 melanoma): 114 nM
- TGI (MDA-MB-435 melanoma): 2720 nM
- GI50 (HS 578T breast): 301 nM
- TGI (HS 578T breast): 1620 nM
- GI50 (HCC-2998 colon): < 10 nM
- TGI (HCC-2998 colon): 4210 nM
- GI50 (T-47D breast): 994 nM
- TGI (T-47D breast): 10200 nM
- GI50 (SNB-19 CNS): 1000 nM
- TGI (SNB-19 CNS): 12800 nM
- GI50 (UACC-257 melanoma): 1020 nM
- TGI (UACC-257 melanoma): 3450 nM
- GI50 (SK-OV-3 ovarian): 1130 nM
- TGI (SK-OV-3 ovarian): 6250 nM
- GI50 (SK-MEL-2 melanoma): 1220 nM
- TGI (SK-MEL-2 melanoma): 3170 nM
- GI50 (PC-3 prostate): < 10 nM
- TGI (PC-3 prostate): 10800 nM
- GI50 (OVCAR-4 ovarian): 21.3 nM
- TGI (OVCAR-4 ovarian): 1420 nM
- GI50 (A549 NSCLC): 66.3 nM
- TGI (A549 NSCLC): 12000 nM
- GI50 (SK-MEL-28 melanoma): < 10 nM
- TGI (SK-MEL-28 melanoma): 1520 nM
- GI50 (COLO 205 colon): < 10 nM
- TGI (COLO 205 colon): 1450 nM
- GI50 (NCI-H522 lung): < 10 nM
- TGI (NCI-H522 lung): 2420 nM
- GI50 (SW-620 colon): < 10 nM
- TGI (SW-620 colon): 10200 nM
- GI50 (OVCAR-3 ovarian): < 10 nM
- TGI (OVCAR-3 ovarian): < 10 nM
- GI50 (SN12C renal): < 10 nM
- TGI (SN12C renal): 2870 nM
- GI50 (HCT-15 colon): 65.9 nM
- TGI (HCT-15 colon): 4370 nM
- GI50 (NCI/ADR-RES ovarian): 2500 nM
- TGI (NCI/ADR-RES ovarian): 12600 nM
- GI50 (IGROV1 ovarian): < 10 nM
- TGI (IGROV1 ovarian): 13800 nM
- GI50 (M14 melanoma): 16.8 nM
- TGI (M14 melanoma): 2210 nM
- GI50 ([…]-0 renal): < 10 nM
- TGI (786-0 renal): 6180 nM
- GI50 (A498 renal): 19.7 nM
- TGI (A498 renal): 6540 nM
- GI50 (HOP-92 NSCLC): 2310 nM
- TGI (HOP-92 NSCLC): 11600 nM
- GI50 (SK-MEL-5 melanoma): 43.8 nM
- TGI (SK-MEL-5 melanoma): 1420 nM
- GI50 (NCI-H460 NSCLC): < 10 nM
- TGI (NCI-H460 NSCLC): < 10 nM
- GI50 (OVCAR-5 ovarian): 182 nM
- TGI (OVCAR-5 ovarian): 9820 nM
- GI50 (HL-60(TB) leukemia): < 10 nM
- TGI (HL-60(TB) leukemia): 126 nM
- GI50 (MDA-MB-468 breast): 1360 nM
- TGI (MDA-MB-468 breast): 3010 nM
- GI50 (UO-31 renal): 335 nM
- TGI (UO-31 renal): 8120 nM
- GI50 (MALME-3M melanoma): 27.6 nM
- TGI (MALME-3M melanoma): 2420 nM
- GI50 (CCRF-CEM leukemia): 54.6 nM
- TGI (CCRF-CEM leukemia): 1360 nM
- GI50 (MDA-MB-231 breast): 1190 nM
- TGI (MDA-MB-231 breast): 10300 nM
- GI50 (BT-549 breast): 11.3 nM
- TGI (BT-549 breast): 205 nM
- GI50 (KM12 colon): < 10 nM
- TGI (KM12 colon): 1680 nM
- GI50 (EKVX NSCLC): 361 nM
- TGI (EKVX NSCLC): 3640 nM
- GI50 (RPMI-8226 leukemia): < 10 nM
- TGI (RPMI-8226 leukemia): < 10 nM
- GI50 (SNB-75 CNS): 1570 nM
- TGI (SNB-75 CNS): 3200 nM
- GI50 (K-562 leukemia): < 10 nM
- TGI (K-562 leukemia): 11200 nM
- GI50 (HOP-62 NSCLC): < 10 nM
- TGI (HOP-62 NSCLC): 18.2 nM
- GI50 (TK-10 renal): 887 nM
- TGI (TK-10 renal): 10400 nM
- GI50 (MCF7 breast): < 10 nM
- TGI (MCF7 breast): 1450 nM
- GI50 (SF-295 CNS): 67.5 nM
- TGI (SF-295 CNS): 4570 nM
- GI50 (DU-145 prostate): < 10 nM
- TGI (DU-145 prostate): 3790 nM
- GI50 (HT29 colon): 2060 nM
- TGI (HT29 colon): 28300 nM
- GI50 (NCI-H322M lung): 644 nM
- TGI (NCI-H322M lung): 3140 nM
- GI50 (SF-539 CNS): < 10 nM
- TGI (SF-539 CNS): 1300 nM
- GI50 (UACC-62 melanoma): < 10 nM
- TGI (UACC-62 melanoma): 30.9 nM
- GI50 (SF-268 CNS): 132 nM
- TGI (SF-268 CNS): 1990 nM
- GI50 (LOX IMVI melanoma): < 10 nM
- TGI (LOX IMVI melanoma): 213 nM
- GI50 (ACHN renal): 73.6 nM
- TGI (ACHN renal): 8680 nM
- GI50 (U251 glioblastoma): 13.3 nM
- TGI (U251 glioblastoma): 10400 nM
- GI50 (MOLT-4 leukemia): < 10 nM
- TGI (MOLT-4 leukemia): < 10 nM
- GI50 (SR leukemia): < 10 nM
- TGI (SR leukemia): < 10 nM
- GI50 (CAKI-1 renal): 38.8 nM
- TGI (CAKI-1 renal): 12300 nM

From PubChem BioAssay (NCI)
